This is an account of results in patent US20110319415A1, “Susceptibility to HSP90-Inhibitors” (Universit+e,uml a+ee t zu K+e,uml o+ee ln, priority 2008, published 2011).

Several values for one entry are separate records, joined by “and”; a condition that tells them apart may be missing. Equal entries are not always repeated. Entries after “also recorded” stand apart in the source; their conditions may differ.

One data set has as its system NSCLC cell lines. The data set can be described thus: High-throughput cell-based screening of the NSCLC cell line collection (CellTiter-Glo viability). Conditions: for sensitivity pattern (cytotoxic activity) across the NSCLC cell line collection: cellular viability after 96 h, cellular ATP content, entire NSCLC cell line panel. For orientation: In ATP-based viability assays light output follows the ATP content of the culture.

For data set [1], the system named is Ba/F3 cells expressing erlotinib-sensitizing mutations of EGFR together with T790M. The data set can be described thus: Growth inhibition / cytotoxicity in Ba/F3 cells expressing mutant EGFR with T790M. It counts as cell-based, Murine. Conditions: Ba/F3 with sensitizing EGFR mutation plus T790M, 96 h, cellular ATP content. As for the experimental part:
Compounds were then added in serial dilutions.
EGFR_cDNA was subcloned into pBabe-hygro vectors.

Data set [2] concerns KRAS-driven lung adenocarcinomas. As for the experimental part: FIG. 20. […] Note that the images were taken from the earlier publications for illustration purposes only.
Transgenic mice (as described in FIG. 20) with KRAS-mutant lung tumors were treated with the HSP90 inhibitor 17-DMAG for seven days. Tumor volumes were determined by magnetic resonance imaging and shown as transthoracic images (left panels), quantified and changes in tumor volume relative to the pre-therapy images are given in percent.
These mice carry a Lox-Stop-Lox-KRAS_G12D gene. […] Mice received 20 mg/kg/d of 17-DMAG, a geldanamycin HSP90 inhibitor with almost identical structure as 17-AAG.

A further data set relates to Akt. Description: Immunoblot of lysates of cell lines treated with 17-AAG: Akt. It counts as cell-based, human. Conditions: sensitive (KRAS-mutant) cell lines. The source says:
(§1) (A) Distribution of KRAS mutations (black columns) across the 17-AAG-sensitivity profile (IC50 values) in the NSCLC cell line collection and the NCI-60 cell line panel. Incidence of KRAS mutation and sensitivity towards 17-AAG is represented by a Fisher's exact test for both datasets. (B) Lysates of a KRAS wildtype (wt) and a KRAS mutated (G12C) cell line treated with 17AAG at different concentrations were immunoblotted for c-RAF, KRAS, cyclinD1 and Akt. (C) Distribution of copy number gain at 1q21.3 (black columns) across the UO126-sensitivity profile (IC50 values) in the NSCLC cell line collection and the hypothemycin-sensitivity profile in the NCI-60 cell line panel. Incidence of amplification of 1q21.3 mutation and sensitivity towards 17-AAG is represented by a Fisher's exact test for both datasets. […]
(§2) Whole-cell lysates were prepared in NP40 lysis buffer (50 mmol/L Tris-HCl (pH 7.4). 150 mmol/L NaCl, 1% NP40) supplemented with protease and phosphatase inhibitor I and II cocktails (www.merckbiosciences.co.uk/g.asp?f=CBC/home.html) and clarified by centrifugation. Protein concentrations were determined using the Bicinchoninic Acid Protein Assay kit (www.piercenet.com) and equivalent amounts (40-60 μg) were subjected to SDS-PAGE on 12% gels, except where indicated. […]

Another data set relates to c-RAF. The data set can be described thus: Immunoblot of lysates of cell lines treated with 17-AAG: c-RAF. It counts as cell-based, human. Conditions: sensitive (KRAS-mutant) cell lines.
From the text: as §1, §2
For orientation: A western blot detects proteins with antibodies after separation by electrophoresis.

In data set [3] the test system is mutant EGFR bound to Hsp90. Description: Depletion of mutant EGFR from the Hsp90 complex. It is filed as cell-based. Conditions: same conditions as for KRAS.
Data set [4] has as its system mutant KRAS bound to Hsp90. The data set can be described thus: Depletion of mutant KRAS from the Hsp90 complex. It counts as cell-based. Conditions: treatment with HSP90 inhibitor.
The next data set concerns KRAS. The data set can be described thus: Immunoblot of lysates of cell lines treated with 17-AAG: KRAS. It counts as cell-based, human. Conditions: sensitive (KRAS-mutant) cell lines.
From the text: as §1, §2

`COc1cc2c(Nc3ccc(Br)cc3F)ncnc2cc1OCC1CCN(C)CC1` [vandetanib]: the “sensitivity pattern (cytotoxic activity) across the NSCLC cell line collection” value (“sensitivity pattern” below) in the data set with NSCLC cell lines is recorded as “pronounced cytotoxic activity in a small subset of cell lines”. Also, the “activity / cytotoxicity in Ba/F3 cells expressing the T790M resistance allele” value is given as “completely resistant” in data set [1] and “lack of activity” in data set [1] (listed as Vandatinib).

As for `C#Cc1cccc(Nc2ncnc3cc(OCCOC)c(OCCOC)cc23)c1` [erlotinib], in the data set with NSCLC cell lines, the “sensitivity pattern” value is recorded as “pronounced cytotoxic activity in a small subset of cell lines”.

For `CO[C@H]1/C=C\C=C(/C)C(=O)NC2=CC(=O)C(NCCN(C)C)=C(C[C@@H](C)C[C@H](OC)[C@H](O)[C@@H](C)/C=C(\C)[C@@H]1OC(N)=O)C2=O` [17-DMAG, 17-NN-Dimethyl Ethylene Diamine-Geldanamycin], in the data set on NSCLC cell lines (in vitro, data not shown), the “biological effects in the cell lines compared with 17-AAG” value is listed as “identical”. In data set [2] (20 mg/kg/d, one week of treatment, MRI imaging), the “tumor burden of the third mouse” value was “slight but insignificant reduction of tumor burden”. The “mice showing tumor regression” value in data set [2] (20 mg/kg/d, one week of treatment, MRI imaging, lox-stop-lox KRAS_G12D mice) is 2 of 3 and 3 of 4. Also, in data set [2] (lung tumor-bearing lox-stop-lox KRAS_G12D mice, one-week treatment), the duration of responses entry is on record as “transient”.

As to `C=CCNC1=C2C[C@@H](C)C[C@H](OC)[C@H](O)[C@@H](C)/C=C(\C)[C@H](OC(N)=O)[C@@H](OC)/C=C\C=C(/C)C(=O)NC(=CC1=O)C2=O` [17-AAG, [(3S,5S,6R,7S,8E,10R,11S,12E,14E)-21-(allylamino)-6-hydroxy-5,11-dimethoxy-3,7,9,15-tetramethyl-16,20,22-trioxo-17-azabicyclo[16.3.1]docosa-8,12,14,18,21-pentaen-10-yl]carbamate], the “sensitivity pattern” value in the data set on NSCLC cell lines is “active in most of the cell lines with only a minority being resistant”. For the same compound, the “Akt protein levels after treatment” value in the data set on Akt is “modulated; also recorded: reduced protein levels”. The “c-RAF protein levels after treatment” value in the data set on c-RAF is “modulated; also recorded: reduced protein levels”. For the same compound, in data set [3], the “depletion of mutant EGFR from the Hsp90 complex” value is recorded as “depleted from the complex”. In data set [4], the “depletion of mutant KRAS from the Hsp90 complex” value is reported as “not depleted from the complex”. In the data set with KRAS, the “KRAS protein levels after treatment” value is listed as “not modulated”.

For the compound `Cc1cc(Nc2cc(N3CCN(C)CC3)nc(Sc3ccc(NC(=O)C4CC4)cc3)n2)n[nH]1` [VX-680], in the data set with NSCLC cell lines, the “sensitivity pattern” value was “pronounced cytotoxic activity in a small subset of cell lines”.

Take `N#CC(=C(/N)Sc1ccccc1N)/C(C#N)=C(\N)Sc1ccccc1N` [U0126]: the “sensitivity pattern” value in the data set on NSCLC cell lines is recorded as “enhanced activity in a subset of the lung cancer cell line collection”.
